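Exposure lasted 48 hours, with cells grown in 96-well plates and compounds tested at five concentrations. Abbreviation: GI50, concentration required for 50% inhibition of growth.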 The source made the active and inactive calls. Cut-off read from the data, not from the text of the source: active = GI50 up to about 1.1 µM and inactive = higher.
Experiments:
Assay in all cases: inhibition of tumour cell growth, NCI panel, 48 h
U-251 = test system: U-251
DU-145 = test system: DU-145
Hs-578T = test system: Hs-578T
SR = test system: SR
NCI/ADR-RES = test system: NCI/ADR-RES
K562 = test system: K562
A498 = test system: A498
786-0 = test system: 786-0
NCI-H522 = test system: NCI-H522
MDA-MB-435 = test system: MDA-MB-435
UACC-257 = test system: UACC-257
HL-60 = test system: HL-60
EKVX = test system: EKVX
SF-268 = test system: SF-268
M14 = test system: M14
MCF7 = test system: MCF7
MDA-N = test system: MDA-N
UO-31 = test system: UO-31
HCC 2998 = test system: HCC 2998

Row | SMILES | GI50 (U-251) | GI50 (DU-145) | GI50 (Hs-578T) | GI50 (SR) | GI50 (NCI/ADR-RES) | GI50 (K562) | GI50 (A498) | GI50 (786-0) | GI50 (NCI-H522) | GI50 (MDA-MB-435) | GI50 (UACC-257) | GI50 (HL-60) | GI50 (EKVX) | GI50 (SF-268) | GI50 (M14) | GI50 (MCF7) | GI50 (MDA-N) | GI50 (UO-31) | GI50 (HCC 2998)
1 | CC(=O)Nc1ccc(-c2cc(C(=O)O)c3cc4ccccc4cc3n2)cc1 | > 100 µM (inactive) | > 100 µM (inactive) | > 100 µM (inactive) | > 100 µM (inactive) | > 100 µM (inactive) | > 100 µM (inactive) | > 100 µM (inactive) | > 100 µM (inactive) | > 100 µM (inactive) | > 100 µM (inactive) | > 100 µM (inactive) | > 100 µM (inactive) | > 100 µM (inactive) | > 100 µM (inactive) | > 100 µM (inactive) | > 100 µM (inactive) | > 100 µM (inactive) |  | 
2 | CC[C@@]12CCCN3CC[C@]4(c5cccc(OC)c5N(C(C)=O)[C@@H]4CC1)[C@H]32 [ASPIDOSPERMINE] | 94 µM (inactive) | > 100 µM (inactive) | 23.9 µM (inactive) | 27.7 µM (inactive) | > 100 µM (inactive) |  | 42.7 µM (inactive) | 80.5 µM (inactive) | 32.3 µM (inactive) | 38.3 µM (inactive) | 31.8 µM (inactive) | 20.7 µM (inactive) | 44.2 µM (inactive) | > 100 µM (inactive) | 36.5 µM (inactive) | 63.1 µM (inactive) | 34.6 µM (inactive) | 68.5 µM (inactive) | 23 µM (inactive)
3 | O=[N+]([O-])C(=C(Nc1cccc2cccnc12)Nc1cccc2cccnc12)C(Cl)=C(Cl)Cl | 55.1 µM (inactive) | 58.3 µM (inactive) | > 21.7 µM (inactive) | > 100 µM (inactive) | 28.8 µM (inactive) | 27.9 µM (inactive) | > 100 µM (inactive) | > 71.3 µM (inactive) | 17.3 µM (inactive) | 36.6 µM (inactive) |  |  | > 100 µM (inactive) | 42.9 µM (inactive) | > 100 µM (inactive) | 13.5 µM (inactive) | 31.7 µM (inactive) | > 100 µM (inactive) | > 61.7 µM (inactive)
4 | C=C1C(O)C2OC(=O)C(=C)C2C(OC(=O)/C(C)=C/C)CC2(C)OC2C2OC12 (stereo unspecified) | 17.2 µM (inactive) | 7.14 µM (inactive) | 20.7 µM (inactive) | 1.93 µM (inactive) | 7.93 µM (inactive) |  | 15.3 µM (inactive) | 6.31 µM (inactive) | 3.15 µM (inactive) | 5.74 µM (inactive) | 15.7 µM (inactive) | 2.52 µM (inactive) | 10.4 µM (inactive) | 4.67 µM (inactive) | 18 µM (inactive) | 4.44 µM (inactive) | 2.2 µM (inactive) | 5.98 µM (inactive) | 4.89 µM (inactive)
5 | COc1cc2nc3n(c2cc1OC)C(O)c1c(Cl)nc(SC)nc1S3 (stereo unspecified) | 3.37 µM (inactive) | 2.39 µM (inactive) | 2.77 µM (inactive) | 3.68 µM (inactive) | 3.36 µM (inactive) | 3.03 µM (inactive) | 6.81 µM (inactive) | 2.35 µM (inactive) | 1.72 µM (inactive) | 4.01 µM (inactive) | 13.1 µM (inactive) |  | 15.4 µM (inactive) | 3.78 µM (inactive) | 2.67 µM (inactive) | 3.36 µM (inactive) | 3.36 µM (inactive) | 2.99 µM (inactive) | 4.21 µM (inactive)
6 | O=C(O)CNC(=O)c1ccccc1O [SALICYLURIC ACID] | > 100 µM (inactive) | > 100 µM (inactive) | > 100 µM (inactive) | > 100 µM (inactive) | > 100 µM (inactive) | > 100 µM (inactive) | > 100 µM (inactive) | > 100 µM (inactive) | > 100 µM (inactive) | > 100 µM (inactive) | > 100 µM (inactive) | > 100 µM (inactive) | > 100 µM (inactive) | > 100 µM (inactive) | > 100 µM (inactive) | > 100 µM (inactive) | > 100 µM (inactive) | > 100 µM (inactive) | 
7 | OCCCCCCCCCCCOc1ccc(C2OCC3(CO2)COC(c2ccc(OCCCCCCCCCCCO)cc2)OC3)cc1 (stereo unspecified) | > 50 µM (inactive) | > 50 µM (inactive) | > 50 µM (inactive) | > 50 µM (inactive) | > 50 µM (inactive) | > 50 µM (inactive) | > 50 µM (inactive) | > 50 µM (inactive) |  | > 50 µM (inactive) | > 50 µM (inactive) |  | > 50 µM (inactive) | > 50 µM (inactive) | > 50 µM (inactive) | > 50 µM (inactive) | > 50 µM (inactive) | > 50 µM (inactive) | > 50 µM (inactive)
8 | O=[N+]([O-])c1cccc(-c2ccc([C@H]3CC(c4ccc(Cl)cc4)=NN3)o2)c1 |  | 15.3 µM (inactive) | 58.9 µM (inactive) | 0.433 µM (active) | 7.83 µM (inactive) | 19.1 µM (inactive) | 31.6 µM (inactive) | 14.6 µM (inactive) | 21.2 µM (inactive) | 19.2 µM (inactive) | 31.7 µM (inactive) | 0.893 µM (active) | 70 µM (inactive) | 27 µM (inactive) | 30.1 µM (inactive) | 16.3 µM (inactive) | 24 µM (inactive) | 22.1 µM (inactive) | 16.6 µM (inactive)
